From ChEMBL document CHEMBL2163241, “Human neutrophil elastase phosphonic inhibitors with improved potency of action” (J Med Chem, 2012)

Tests used:
[1] = target: Pancreatic elastase (Sus scrofa) (UniProt P08419+P00772); assay: Inhibition of porcine pancreatic elastase at 25 uM assessed as Kinact/Ki ratio incubated for 15 mins by spectrofluorometry; assay type: protein assay
[2] = target: T1, Neutrophil elastase (Homo sapiens) (UniProt P08246); assay: Inhibition of human leukocyte elastase at 25 uM assessed as Kinact/Ki ratio incubated for 15 mins by spectrofluorometry
T1 sequence (whole entry): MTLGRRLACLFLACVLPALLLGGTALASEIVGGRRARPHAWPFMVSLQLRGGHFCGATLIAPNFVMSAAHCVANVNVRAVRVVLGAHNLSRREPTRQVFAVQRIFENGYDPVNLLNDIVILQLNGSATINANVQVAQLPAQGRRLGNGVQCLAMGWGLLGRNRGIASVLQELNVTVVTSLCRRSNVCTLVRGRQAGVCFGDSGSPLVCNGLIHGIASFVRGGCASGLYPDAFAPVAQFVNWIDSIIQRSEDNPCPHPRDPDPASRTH

[3] = Inhibition of trypsin at 25 uM assessed as Kinact/Ki ratio incubated for 15 mins by spectrofluorometry
[4] = Inhibition of chymotrypsin at 25 uM assessed as Kinact/Ki ratio incubated for 15 mins by spectrofluorometry

SMILES	Ratio [1] [M⁻¹ s⁻¹]	Ratio [2] [M⁻¹ s⁻¹]	Ratio [3] [M⁻¹ s⁻¹]	Ratio [4] [M⁻¹ s⁻¹]	inhibition [3] [%]	inhibition [4] [%]
CCCC(NC(=O)[C@@H]1CCCN1C(=O)[C@@H](NC(=O)OC(C)(C)C)C(C)C)P(=O)(Oc1ccccc1)Oc1ccccc1 (mixture of isomers)	10900	2600	< 50	140		
CCCCC(NC(=O)[C@@H]1CCCN1C(=O)[C@@H](NC(=O)OC(C)(C)C)C(C)C)P(=O)(Oc1ccccc1)Oc1ccccc1 (mixture of isomers)	1700	650	< 50	400		
CC[C@H](C)[C@H](NC(=O)OCc1ccccc1)C(=O)N1CCC[C@H]1C(=O)NC(C(C)C)P(=O)(Oc1ccc(SC)cc1)Oc1ccc(SC)cc1 (mixture of isomers)	1800	145000	< 50	1600		
CCc1ccc(OP(=O)(Oc2ccc(CC)cc2)C(CC)NC(=O)[C@@H]2CCCN2C(=O)[C@@H](NC(=O)OC(C)(C)C)C(C)C)cc1 (mixture of isomers)	4210	1380	< 50	< 50		
CCc1ccc(OP(=O)(Oc2ccc(CC)cc2)C(NC(=O)[C@@H]2CCCN2C(=O)[C@@H](NC(=O)OC(C)(C)C)C(C)C)C(C)C)cc1 (mixture of isomers)	6000	6800			< 5	< 5
COc1ccc(OP(=O)(Oc2ccc(OC)cc2)C(CC(C)C)NC(=O)[C@@H]2CCCN2C(=O)[C@@H](NC(=O)OC(C)(C)C)C(C)C)cc1 (mixture of isomers)	960	270	< 50	1700		
COc1ccc(OP(=O)(Oc2ccc(OC)cc2)C(NC(=O)[C@@H]2CCCN2C(=O)[C@@H](NC(=O)OC(C)(C)C)C(C)C)C(C)C)cc1 (mixture of isomers)	19500	42700	< 50	< 50		
CSCC[C@H](NC(=O)OCc1ccccc1)C(=O)N1CCC[C@H]1C(=O)NC(C(C)C)P(=O)(Oc1ccc(SC)cc1)Oc1ccc(SC)cc1 (mixture of isomers)	6300	223000	< 50	3700		
CSc1ccc(OP(=O)(Oc2ccc(SC)cc2)C(C)NC(=O)[C@@H]2CCCN2C(=O)[C@@H](NC(=O)OC(C)(C)C)C(C)C)cc1 (mixture of isomers)	11400	3500	< 50	< 50		
CSc1ccc(OP(=O)(Oc2ccc(SC)cc2)C(CC(C)C)NC(=O)[C@@H]2CCCN2C(=O)[C@@H](NC(=O)OC(C)(C)C)C(C)C)cc1 (mixture of isomers)	11200	4100	280	21900		
CSc1ccc(OP(=O)(Oc2ccc(SC)cc2)C(NC(=O)[C@@H]2CCCN2C(=O)CNC(=O)OC(C)(C)C)C(C)C)cc1 (mixture of isomers)	5100	35000	< 50	< 50		
CSc1ccc(OP(=O)(Oc2ccc(SC)cc2)C(NC(=O)[C@@H]2CCCN2C(=O)CNC(=O)OCc2ccccc2)C(C)C)cc1 (mixture of isomers)	1200	39000	< 50	200		
CSc1ccc(OP(=O)(Oc2ccc(SC)cc2)C(NC(=O)[C@@H]2CCCN2C(=O)[C@@H](C)NC(=O)OC(C)(C)C)C(C)C)cc1 (mixture of isomers)	900	39400	< 50	< 50		
CSc1ccc(OP(=O)(Oc2ccc(SC)cc2)C(NC(=O)[C@@H]2CCCN2C(=O)[C@@H](NC(=O)OCc2ccccc2)C(C)C)C(C)C)cc1 (mixture of isomers)	6200	231000	< 50	4400		
CSc1ccc(OP(=O)(Oc2ccc(SC)cc2)C(NC(=O)[C@@H]2CCCN2C(=O)[C@H](C)NC(=O)OCc2ccccc2)C(C)C)cc1 (mixture of isomers)	12000	144000	< 50	1500		
CSc1ccc(OP(=O)(Oc2ccc(SC)cc2)C(NC(=O)[C@@H]2CCCN2C(=O)[C@H](CC(C)C)NC(=O)OC(C)(C)C)C(C)C)cc1 (mixture of isomers)	7000	128000	< 50	150		
CSc1ccc(OP(=O)(Oc2ccc(SC)cc2)C(NC(=O)[C@@H]2CCCN2C(=O)[C@H](CC(C)C)NC(=O)OCc2ccccc2)C(C)C)cc1 (mixture of isomers)	1000	86200		800	< 5	
CSc1ccc(OP(=O)(Oc2ccc(SC)cc2)C(NC(=O)[C@@H]2CCCN2C(=O)[C@H](COC(C)(C)C)NC(=O)OCc2ccccc2)C(C)C)cc1 (mixture of isomers)	4300	162000	< 50	500		
